Data as given in patent US20180207228A1, “PEPTIDE COMBINATIONS AND USES THEREOF FOR TREATING GRASS ALLERGY” (ALK-Abelló A/S, priority 2015, published 2018).
Where no end group is shown, it is not given here.

Experiments:
Format in all cases: cell-based, human
[1] = tested on: release of IFN-γ upon T cell activation; experiment: Fluorospot assay, IFN-γ release (DK1-TCL01, US1-TCL01); details: head prints TCL-02 DK1; 17 TCL-01 DK1 lines
Protocol: (§1) Grass allergic donors were recruited (cohort DK1 including 30 grass allergic individuals, DK2 including 24 grass allergic individuals and US1 including 15 grass allergic individuals). PBMCs were isolated from freshly drawn heparinized blood by gradient centrifugation on lymphoprep (Nycomed, Norway), washed twice and re-suspended in RPMI 1640 medium with HEPES and ultraglutamine (Cambrex, Belgium) supplemented with 5% v/v human AB-serum (Cambrex, Belgium), 100 units/ml penicillin, and 0.1 mg/ml streptomycin (Sigma, St Louis, USA) (referred to as 5% AB-medium). Aliquots of the isolated PBMCs were frozen and were thawed later to stimulate the T cell lines. Additionally either fresh or thawed PBMCs were used as antigen presenting cells (APCs) in the proliferation assay as described later. In some cases the PBMCs were freezed at this stage and thawed later on to continue the experiment as described in the following. The isolated PBMCs (fresh or thawed) were CD8 depleted by MACS magnetic depletion according to the manufacturer's instructions (Miltenyi Biotec, Bergisch Gladbach, Germany). On day 0 the CD8-depleted PBMCs (2×10^6/ml) were stimulated in 1 ml bulk cultures in AB medium in 24 well plates (Nunc, Denmark) with the mixture of natural allergens: nPhl p 1 (0.5 μg/ml), mix of nPhl p 2/nPhl p 3 (1.0 μg/ml), nPhl p 4 (0.5 μg/ml), nPhl p 5 (0.5 μg/ml) and nCyn d 1 (0.5 μg/ml). Amount of 65 U, 30 U, and 30 U recombinant IL-2 (Chiron, USA) were added per well at days 5, 6 and 7, respectively. On day 14 cells were harvested to obtain T cell line generation 01 (referred to as TCL01).
(§2) On day 14 the T cells of TCL01 were isolated, washed and counted. The isolated T cells of TCL01 generation were used to perform either ELISpot or Fluorospot assay. TCL01 were further re-stimulated as described in the next paragraph for use in T cell proliferation. The aliquot for use in T cell proliferation was re-stimulated on day 14 to carry out proliferation experiment at day 24.
(§3) In the Fluorospot assays, release of IL-5 and IFN-γ upon T cell activation (of donor derived lines DK1-TCL01, and US1-TCL01) with a peptide or a peptide-mix described herein was measured by Fluorospot assay kit (Mabtech AB) and procedures were followed as per manufacturer's instructions. Briefly anti-human IL-5 and anti-human IFN-γ coated 96 well plates were obtained and blocked with 10% AB serum in RPMI. The plates were washed thoroughly and the isolated T cells were plated and incubated with either single peptides (2 μg/ml) or peptide mixes (2 μg/ml), or allergens nPhl p1, nPhl p 2, nPhl p 3, nPhl p 4, nPhl p 5, Cyn d 1 at 2 μg/ml for 20 hrs/37° C./5% CO2. After the incubation time the cells were removed by emptying the plate. Detection antibodies 7-B6-1-FS-FITC (1:200) and 5A10-biotin (2 μg/ml) were diluted in PBS-0.1% BSA and were added to the plate and incubated for 2 hours/room temperature (RT). There-after the plates were washed and anti-FITC-green (1:200) and SA-Red (1:200) diluted in PBS±0.1% BSA were added and incubated for 1 hour/RT/dark. After the incubation period the plates were washed, emptied and fluorescence enhancer solution was added for 15 minutes/RT. Plates were emptied, fluorescence enhancer solution was firmly tapped out against a clean paper, soft plastic under drain was removed and the plates were left in the dark to dry. The counts were inspected in a fluorospot reader. Hit criteria for peptide were 20 SFCs/10^6 PBMCs, p≤0.05 and poisson 0.05 stimulated cells compared to background, and a stimulation index (SI)≥2.
(§4) The peptides were identified as hits if they fulfilled the criteria as mentioned below where stimulation index (SI) value of 2 or above, Poisson value=<0.05 and P value=<0.05, SFC>=20 (IL-5/IFN-g)/10^6 cells and CPM>=1000 (proliferation) SI can be defined as [[…]/medium control] in a Fluorospot assay and [counts per minute (cpm)/medium control] in a proliferation assay.

[2] = tested on: allergen specific T cells; experiment: T cell proliferation assay (72 h) on donor derived T cell lines (TCL02/TCL03); details: for Proliferation % donor coverage (TCL-02 DK1): T cell lines TCL-02 DK1, 30 donors, hit criteria SI>=2, CPM>=1000; for Proliferation strength (TCL-02 DK1): T cell lines TCL-02 DK1, strength of response (average relative magnitude)
In short: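 Overlapping 20-mer and selected 15-mer grass allergen peptides were screened for proliferation using TCL02 (day 24) or TCL03 (day 34) lines. Lines came from grass-allergic donors' CD8-depleted PBMCs, primed with natural allergen mix and expanded with irradiated autologous or allogeneic APCs, PHA-P 0.5 μg/ml and rIL-2.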

[3] = tested on: release of IL-5 upon T cell activation; experiment: Fluorospot assay, IL-5 release (DK1-TCL01, US1-TCL01); details: head prints TCL-02 DK1; text: 25 TCL-01 DK1 lines
Protocol: as §1, §2, §3, §4

Molecule	IFN-gamma % donor coverage (TCL-02 DK1) [1]	Proliferation % donor coverage (TCL-02 DK1) [2]	Proliferation strength (TCL-02 DK1) [2]	IL-5-Fluorospotr % donor coverage (TCL-02 DK1) [3]
CC[C@H](C)[C@H](NC(=O)[C@H](CCCCN)NC(=O)[C@@H](NC(=O)[C@H](CC(C)C)NC(=O)[C@@H](NC(=O)[C@@H]1CCCN1C(=O)[C@H](CCC(=O)O)NC(=O)CNC(=O)[C@H](CO)NC(=O)[C@H](CO)NC(=O)[C@H](CCC(=O)O)NC(=O)[C@@H](NC(=O)[C@@H]1CCCN1)C(C)C)C(C)C)C(C)C)C(=O)N[C@H](C(=O)N[C@@H](CC(=O)O)C(=O)N[C@@H](CCCCN)C(=O)N[C@@H](CC(N)=O)C(=O)N[C@@H](Cc1ccc(O)cc1)C(=O)N[C@@H](CCC(=O)O)C(=O)N[C@@H](Cc1c[nH]cn1)C(=O)O)[C@@H](C)O [compound 97]	8.00%	10.00%	0.70	4.00%
GAASNKAFAEGLSGEPKGAA-OH [compound 76]	0.00%	16.67%	1.60	0.00%
TSAVGAATGAATAATGGYKV-OH [compound 88]	0.00%	0.00%	0.00	0.00%
TKKGNVWEVKSSKPLVGPFN-OH [compound 38]	4.00%	50.00%	6.60	24.00%
VPKVTFTVEKGSNEKHLAVL-OH [compound 30]	0.00%	3.33%	0.40	0.00%
CC[C@H](C)[C@H](NC(=O)[C@H](CCC(=O)O)NC(=O)[C@H](Cc1c[nH]c2ccccc12)NC(=O)[C@@H](NC(=O)CNC(=O)[C@@H](N)CC(=O)O)C(C)C)C(=O)N[C@@H](CCCCN)C(=O)N[C@@H](CO)C(=O)N[C@@H](CC(=O)O)C(=O)N[C@@H](CCCCN)C(=O)N1CCC[C@H]1C(=O)N[C@@H](CC(C)C)C(=O)N[C@@H](CCCCN)C(=O)NCC(=O)N1CCC[C@H]1C(=O)O [compound 130]	4.00%	10.34%	1.80	12.50%
TALKKAITAMSEAQKAAKPA-OH [compound 85]	0.00%	20.00%	2.80	4.00%
TKGKVDPTDYFRNEQSIPPL-OH [compound 60]	0.00%	13.33%	2.60	0.00%
GFKAALAAAAGVPPADKYRT-OH [compound 63]	0.00%	26.67%	4.10	12.00%
KPAAAATATATSAVGAATGA-OH [compound 87]	0.00%	10.00%	0.70	0.00%
YIITPTNVSHIQSAVVSGRR-OH [compound 46]	0.00%	27.00%	1.00	0.00%
VRYTTEGGTKTEAEDVIPEG-OH [compound 12]	8.00%	23.33%	7.00	8.00%
RNVFDEVIPTAFKIGKTYTP-OH [compound 44]	0.00%	20.00%	1.40	0.00%
CSCC[C@H](N)C(=O)N[C@@H](CCCNC(=N)N)C(=O)N[C@@H](CC(N)=O)C(=O)N[C@H](C(=O)N[C@@H](Cc1ccccc1)C(=O)N[C@@H](CC(=O)O)C(=O)N[C@@H](CC(=O)O)C(=O)N[C@H](C(=O)N[C@H](C(=O)N1CCC[C@H]1C(=O)N[C@@H](C)C(=O)N[C@@H](CC(=O)O)C(=O)N[C@@H](Cc1ccccc1)C(=O)N[C@@H](CCCCN)C(=O)N[C@H](C(=O)O)C(C)C)C(C)C)C(C)C)C(C)C [compound 126]	0.00%	37.93%	0.40	8.33%
WLDAKSTWYGKPTGAGPKDN-OH [compound 1]	4.00%	26.67%	4.70	24.00%
KPTGAGPKDNGGASGYKDVD-OH [compound 17]	4.00%	23.33%	2.80	8.00%
GGASGYKDVDKPPFSGMTGS-OH [compound 18]	0.00%	16.67%	2.30	0.00%
RASYEIKSKEPVESSGEPVL-OH [compound 96]	0.00%	6.67%	0.60	0.00%
CC[C@H](C)[C@H](NC(=O)[C@@H](NC(=O)[C@H](CC(=O)O)NC(=O)[C@H](CCC(=O)O)NC(=O)[C@H](C)NC(=O)[C@H](CCC(=O)O)NC(=O)[C@@H](N)[C@@H](C)O)C(C)C)C(=O)N1CCC[C@H]1C(=O)N[C@@H](CCC(=O)O)C(=O)NCC(=O)N[C@@H](Cc1c[nH]c2ccccc12)C(=O)N[C@@H](CCCCN)C(=O)N[C@@H](C)C(=O)N[C@@H](CC(=O)O)C(=O)N[C@H](C(=O)N[C@@H](CO)C(=O)N[C@@H](Cc1ccc(O)cc1)C(=O)N[C@@H](CCC(=O)O)C(=O)N[C@@H](CO)C(=O)N[C@@H](CCCCN)C(=O)O)[C@@H](C)O [compound 13]	8.00%	43.33%	8.10	16.00%
AYKTAEGATPEAKYDAYVAT-OH [compound 79]	0.00%	26.67%	3.30	0.00%
RIIAGTLEVHAVKPAAEEVK-OH [compound 80]	0.00%	30.00%	4.40	0.00%
